# In patent US5620958A, “Bradykinin antagonists” (Coretech, Inc., priority 1994, dated 1997):
# Numbered stars: 1 amine (or outer) side, 2 acyl side, 3 side chain; on linkers, the order of the positions; unused ones are H or OH. Bridge positions count the residues as written; N and C are the ends. Square brackets hold non-standard residues; d marks the D form. Peptide text beside a SMILES is read from it. I, II: the chains in the order shown. BMH = O=C1CC([*:1])C(=O)N1CCCCCCN1C(=O)CC([*:2])C1=O; Oic = O=C(O)[C@@H]1C[C@@H]2CCCC[C@@H]2N1; Hyp = O=C(O)[C@@H]1C[C@@H](O)CN1; dTic = O=C(O)[C@H]1Cc2ccccc2CN1
# Key:
# [1] = molecular target: T1, BK2 receptor (Cavia porcellus, UniProt O70526); assay: guinea-pig ileum (GPI) in vitro, antagonism of BK; format: cell-based; conditions: Table B; read-out: pA2 GUINEA PIG ILEUM (converted)
# T1 construct: tested for activity on guinea pig ileum in vitro on the standard tissue bath/strain gauge system; from tissue; host or cells: guinea pig ileum
# T1 sequence (O70526 1-372): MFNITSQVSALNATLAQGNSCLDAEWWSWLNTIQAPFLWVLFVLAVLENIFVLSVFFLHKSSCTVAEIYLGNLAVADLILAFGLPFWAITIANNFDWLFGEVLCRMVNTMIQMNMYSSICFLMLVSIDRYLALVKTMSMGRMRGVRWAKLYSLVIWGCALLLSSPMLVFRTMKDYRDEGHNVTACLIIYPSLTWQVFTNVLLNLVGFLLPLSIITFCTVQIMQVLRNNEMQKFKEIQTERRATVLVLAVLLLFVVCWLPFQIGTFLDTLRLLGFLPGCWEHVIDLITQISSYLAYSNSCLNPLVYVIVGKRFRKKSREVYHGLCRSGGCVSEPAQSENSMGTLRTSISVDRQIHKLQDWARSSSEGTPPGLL
# Procedure: Thus, in vitro studies were performed on standard assay systems, namely, guinea-pig ileum (GPI), rat uterus (RU) and rabbit jugular vein (RJV). […] The potency of each compound was assessed as a pA2 value according to the method of Arunlakshana & Schild, Br. J. Pharmacol. Chemother., 1.4:48-58 (1959). The pA2 can be defined as the negative logarithm of the molar concentration of the antagonist in the presence of which the potency of the agonist is reduced two-fold, i.e., twice the amount of agonist is required to produce a given response in the presence of, than in the absence of, the antagonist. A high potency of antagonism is indicated by a high pA2 value, i.e., a low concentration of antagonist is effective.
# The percentage recovery (% Rec) was also determined for compounds with respect to each assay.
# The various compounds identified in Table B below were prepared following the procedure of Example 1 with the Cys moiety introduced into the parent CP-0088 at the position indicated followed by reaction between the sulfhydryl group of the Cys residue and BMH to provide dimers as indicated. The Cys-modified monomers and the resultant dimers were tested for activity on guinea pig ileum in vitro on the standard tissue bath/strain gauge system as before.
# [2] = molecular target: T2, BK2 receptor (Rattus norvegicus, UniProt P25023); conditions: for BK2 Rat Uterus pA2: Table L
# T2 sequence (P25023 1-396): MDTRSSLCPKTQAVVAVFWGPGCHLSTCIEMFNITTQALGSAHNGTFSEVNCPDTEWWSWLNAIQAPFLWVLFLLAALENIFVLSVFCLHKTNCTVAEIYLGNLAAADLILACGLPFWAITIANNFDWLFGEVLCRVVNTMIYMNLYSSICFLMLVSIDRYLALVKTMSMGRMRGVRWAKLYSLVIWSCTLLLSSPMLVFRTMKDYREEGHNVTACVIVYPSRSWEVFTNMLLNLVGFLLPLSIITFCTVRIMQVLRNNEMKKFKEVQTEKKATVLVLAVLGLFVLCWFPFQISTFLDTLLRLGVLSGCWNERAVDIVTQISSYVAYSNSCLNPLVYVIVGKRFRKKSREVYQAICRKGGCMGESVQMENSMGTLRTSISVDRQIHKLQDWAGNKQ
# [3] = molecular target: T2, BK2 receptor; assay: cell-based
# [4] = molecular target: T3, BK1 receptor (Oryctolagus cuniculus, UniProt P48748); assay: rabbit aorta in vitro, reversal of des-Arg^9 -BK contraction; format: cell-based; conditions: for IC50: negative log of molar concentration
# T3 construct: when administered to an intact animal; from tissue; host or cells: whole rabbit (systemic arterial blood pressure), LPS-pretreated
# T3 sequence (P48748 1-352): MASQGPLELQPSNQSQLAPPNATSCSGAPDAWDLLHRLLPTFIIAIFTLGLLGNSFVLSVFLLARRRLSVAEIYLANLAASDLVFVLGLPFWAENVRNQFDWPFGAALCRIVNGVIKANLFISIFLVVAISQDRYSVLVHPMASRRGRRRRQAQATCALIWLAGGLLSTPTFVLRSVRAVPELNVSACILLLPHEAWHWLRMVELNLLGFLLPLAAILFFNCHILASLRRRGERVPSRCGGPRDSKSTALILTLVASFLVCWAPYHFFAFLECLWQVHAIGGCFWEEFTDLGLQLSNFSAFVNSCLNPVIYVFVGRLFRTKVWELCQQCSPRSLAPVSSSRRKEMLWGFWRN
# [5] = molecular target: T3, BK1 receptor; assay: blood pressure response to BK1 agonist in LPS-pretreated rabbits; format: in vivo, rabbit; conditions: for OBSERVED ANTAGONIST ACTIVITY BK1: rabbits given LPS (10 μg) 20 hours before
# [6] = molecular target: T4, BK2 receptor (Oryctolagus cuniculus, UniProt Q28642); assay: blood pressure response to BK2 agonist in LPS-pretreated rabbits; format: in vivo, rabbit; parameters: key to OBSERVED ANTAGONIST ACTIVITY BK2: +: indicates complete blockade of the blood pressure response to the appropriate agonist; +/-: indicates partial blockade; -: indicates no observable effect at the dose indicated; conditions: for OBSERVED ANTAGONIST ACTIVITY BK2: rabbits given LPS (10 μg) 20 hours before
# T4 construct: when administered to an intact animal; from tissue; host or cells: whole rabbit (systemic arterial blood pressure), LPS-pretreated
# T4 sequence (Q28642 1-367): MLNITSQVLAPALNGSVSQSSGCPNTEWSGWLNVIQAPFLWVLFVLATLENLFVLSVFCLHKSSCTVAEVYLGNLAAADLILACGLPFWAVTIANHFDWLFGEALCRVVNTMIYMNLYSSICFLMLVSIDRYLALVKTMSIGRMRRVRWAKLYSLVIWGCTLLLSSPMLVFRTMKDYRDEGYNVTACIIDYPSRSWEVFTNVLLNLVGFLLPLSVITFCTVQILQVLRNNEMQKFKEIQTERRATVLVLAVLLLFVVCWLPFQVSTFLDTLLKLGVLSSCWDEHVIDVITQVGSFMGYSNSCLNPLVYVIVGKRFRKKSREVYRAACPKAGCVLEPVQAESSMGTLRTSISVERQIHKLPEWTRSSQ
# [7] = FIG. 8c, rabbits after endotoxin pretreatment
Structure (SMILES),Kb [3] [nM],IC50 ([4]; Table L) [nM],OBSERVED ANTAGONIST ACTIVITY BK1 ([5]; 1 μg kg^-1 min^-1),OBSERVED ANTAGONIST ACTIVITY BK1 ([5]; 3 μg kg^-1 min^-1),OBSERVED ANTAGONIST ACTIVITY BK1 ([5]; 10 μg kg^-1 min^-1),OBSERVED ANTAGONIST ACTIVITY BK2 ([6]; 1 μg kg^-1 min^-1),OBSERVED ANTAGONIST ACTIVITY BK2 ([6]; 3 μg kg^-1 min^-1),OBSERVED ANTAGONIST ACTIVITY BK2 ([6]; 10 μg kg^-1 min^-1),BK1 antagonism [4],activity in the rat uterus BK2 receptor system [2],BK2 Rat Uterus pA2 [2],further results
CC(C)C[C@H](NC(=O)[C@@H](Cc1ccccc1)NC(=O)[C@H](CO)NC(=O)[C@H](Cc1ccccc1)NC(=O)CNC(=O)[C@@H]1C[C@@H](O)CN1C(=O)[C@@H]1CCCN1C(=O)[C@H](CS)NC(=O)[C@H](N)CCCNC(=N)N)C(=O)N[C@@H](CCCNC(=N)N)C(=O)O [CP-0141] (HELM PEPTIDE1{[dR].C.P.[Hyp].G.F.S.[dF].L.R}$$$$V2.0),> 1000,,,,,,,,,,,"Kb [1]: 794 nM; % REC MONOMER ([2]; Table C, rat uterus): 100%"
CC(C)C[C@H](NC(=O)[C@@H]1CCCN1C(=O)[C@H](CO)NC(=O)[C@H](Cc1ccccc1)NC(=O)CNC(=O)[C@@H]1C[C@@H](O)CN1C(=O)[C@@H]1CCCN1C(=O)[C@H](CS)NC(=O)[C@H](N)CCCNC(=N)N)C(=O)O [CP-0362] (HELM PEPTIDE1{[dR].C.P.[Hyp].G.F.S.P.L}$$$$V2.0; N-terminus and C-terminus assumed),,,,,,,,,,,,IC50 ([4]; Table K): 1000 nM; BK2 (RAT UTERUS) pA2 ([2]; Table K): Inactive
"CC(C)C[C@H](NC(=O)[C@@H]1CCCN1C(=O)[C@H](CO)NC(=O)[C@H](Cc1ccccc1)NC(=O)CNC(=O)[C@@H]1C[C@@H](O)CN1C(=O)[C@@H]1CCCN1C(=O)[C@H](CSC1CC(=O)N(CCCCCCN2C(=O)CC(SC[C@H](NC(=O)[C@H](Cc3ccccc3)NC(=O)CNC(=O)[C@@H]3C[C@@H](O)CN3C(=O)[C@@H]3CCCN3C(=O)[C@H](CCCNC(=N)N)NC(=O)[C@H](N)CCCNC(=N)N)C(=O)N[C@H](Cc3ccccc3)C(=O)N[C@@H](CC(C)C)C(=O)N[C@@H](CCCNC(=N)N)C(=O)O)C2=O)C1=O)NC(=O)[C@H](N)CCCNC(=N)N)C(=O)O (stereo partly shown) [CP-0364] (HELM PEPTIDE1{[dR].R.P.[Hyp].G.F.C.[dF].L.R}|PEPTIDE2{[dR].C.P.[Hyp].G.F.S.P.L}|CHEM1{[O=C1CC([*:1])C(=O)N1CCCCCCN1C(=O)CC([*:2])C1=O]}$PEPTIDE1,CHEM1,7:R3-1:R1|PEPTIDE2,CHEM1,2:R3-1:R2$$$V2.0; N-terminus and C-terminus assumed)",5.01,31.6,+,+,+,+,+,+,,,,"block of BK1-mediated hypotensive response [5, 7]: capable of blocking the response profile to both agonists simultaneously; block of BK2-mediated hypotensive response [6, 7]: capable of blocking the response profile to both agonists simultaneously"
N=C(N)NCCC[C@@H](N)C(=O)N[C@@H](CCCNC(=N)N)C(=O)N1CCC[C@H]1C(=O)N1C[C@H](O)C[C@H]1C(=O)NCC(=O)N[C@@H](Cc1ccccc1)C(=O)N[C@@H](CSC1CC(=O)N(CCCCCCN2C(=O)CC(SC[C@H](NC(=O)[C@H](N)CCCNC(=N)N)C(=O)N3CCC[C@H]3C(=O)N3C[C@H](O)C[C@H]3C(=O)NCC(=O)N[C@@H](Cc3ccccc3)C(=O)N[C@@H](CO)C(=O)N3Cc4ccccc4C[C@@H]3C(=O)N3[C@H](C(=O)O)C[C@@H]4CCCC[C@@H]43)C2=O)C1=O)C(=O)N1Cc2ccccc2C[C@@H]1C(=O)N1[C@H](C(=O)N[C@@H](CCCNC(=N)N)C(=O)O)C[C@@H]2CCCC[C@@H]21 (stereo partly shown) [CP-0365] (I: H-[dR]RP[Hyp]GFC[dTic][Oic]R-OH / II: H-[dR]CP[Hyp]GFS[dTic][Oic]-OH; linker I:7-II:2 via BMH; N-terminus and C-terminus assumed),3.98,39.8,-,+,+,-,+,+,,,,
"CC(C)C[C@H](NC(=O)[C@@H]1CCCN1C(=O)[C@H](CO)NC(=O)[C@H](Cc1ccccc1)NC(=O)CNC(=O)[C@@H]1C[C@@H](O)CN1C(=O)[C@@H]1CCCN1C(=O)[C@H](CSC1CC(=O)N(CCCCCCN2C(=O)CC(SC[C@H](NC(=O)[C@H](Cc3ccccc3)NC(=O)CNC(=O)[C@@H]3C[C@@H](O)CN3C(=O)[C@@H]3CCCN3C(=O)[C@H](CCCNC(=N)N)NC(=O)[C@H](N)CCCNC(=N)N)C(=O)N[C@H](Cc3ccccc3)C(=O)N[C@@H](CC(C)C)C(=O)N[C@@H](CCCNC(=N)N)C(=O)O)C2=O)C1=O)NC(=O)[C@@H](N)CCCCN)C(=O)O (stereo partly shown) [CP-0382] (HELM PEPTIDE1{[dR].R.P.[Hyp].G.F.C.[dF].L.R}|PEPTIDE2{K.C.P.[Hyp].G.F.S.P.L}|CHEM1{[O=C1CC([*:1])C(=O)N1CCCCCCN1C(=O)CC([*:2])C1=O]}$PEPTIDE1,CHEM1,7:R3-1:R1|PEPTIDE2,CHEM1,2:R3-1:R2$$$V2.0; N-terminus and C-terminus assumed)",,631,,,,,,,BK1 antagonism was retained,substantial partial agonism,Agonist,
"CC(C)C[C@H](NC(=O)[C@@H]1CCCN1C(=O)[C@H](CO)NC(=O)[C@H](Cc1cccs1)NC(=O)CNC(=O)[C@@H]1CCCN1C(=O)[C@@H]1CCCN1C(=O)[C@H](CSC1CC(=O)N(CCCCCCN2C(=O)CC(SC[C@H](NC(=O)[C@H](Cc3ccccc3)NC(=O)CNC(=O)[C@@H]3C[C@@H](O)CN3C(=O)[C@@H]3CCCN3C(=O)[C@H](CCCNC(=N)N)NC(=O)[C@H](N)CCCNC(=N)N)C(=O)N[C@H](Cc3ccccc3)C(=O)N[C@@H](CC(C)C)C(=O)N[C@@H](CCCNC(=N)N)C(=O)O)C2=O)C1=O)NC(=O)[C@@H](N)CCCCN)C(=O)O (stereo partly shown) [CP-0383] (HELM PEPTIDE1{[dR].R.P.[Hyp].G.F.C.[dF].L.R}|PEPTIDE2{K.C.P.P.G.[O=C([C@H](Cc1cccs1)N[*:1])[*:2]].S.P.L}|CHEM1{[O=C1CC([*:1])C(=O)N1CCCCCCN1C(=O)CC([*:2])C1=O]}$PEPTIDE1,CHEM1,7:R3-1:R1|PEPTIDE2,CHEM1,2:R3-1:R2$$$V2.0)",,15.8,,,,,,,BK1 antagonism was retained,substantial partial agonism,Agonist,
